Laboratory results published in US7446102B2, “Antibacterial amide macrocycles IV” (priority 2004, dated 2008).
Values after ≈ are worked out from the molar mass of the structure shown. Structures can show the parent of a compound that is named as a salt. Where two headings read alike, the source gives them in different places.

What was measured:
[1] = test system: S. aureus 133; experiment: Systemic infection with S. aureus 133 (mouse sepsis model); assay type: in vivo; conditions: female CFW1 mice, i.p. infection, i.v. therapy 30 minutes after the infection, survival over 6 days
[2] = target: S. aureus 133 translation; experiment: S. aureus in vitro transcription-translation assay (firefly luciferase, S30 extract); assay type: biochemical; conditions: 50% inhibition of the translation of firefly luciferase
From the text: In Vitro Transcription-Translation with S. aureus Extracts
Construction of an S. aureus Luciferase Reporter Plasmid
For the construction of a reporter plasmid which can be used in an in vitro transcription-translation assay from S. aureus the plasmid pBESTluc (Promega Corporation, USA) is used. The E. coli tac promoter present in this plasmid in front of the firefly luciferase is replaced by the capA1 promoter with appropriate Shine-Dalgarno sequence from S. aureus. The primers CAPFor 5′-[…] […] […]-3′ and CAPRev 5′-[…]-3′ are used for this. The primer CAPFor contains the capA1 promoter, the ribosome binding site and the 5′ region of the luciferase gene. After PCR using pBESTluc as template it is possible to isolate a PCR product which contains the firefly luciferase gene with the fused capA1 promoter. This is, after restriction with ClaI and HindIII, ligated into the vector pBESTluc which has likewise been digested with ClaI and HindIII. The resulting plasmid p1a is able to replicate in E. coli and be used as template in the S. aureus in vitro transcription-translation assay.
Preparation of S30 Extracts from S. aureus
Six liters of BHI medium are inoculated with a 250 ml overnight culture of an S. aureus strain and allowed to grow at 37° C. until the OD600 nm is 2-4. The cells are harvested by centrifugation and washed in 500 ml of cold buffer A (10 mM Tris acetate, pH 8.0, 14 mM magnesium acetate, 1 mM DTT, 1 M KCl). After renewed centrifugation, the cells are washed in 250 ml of cold buffer A with 50 mM KCl, and the resulting pellets are frozen at −20° C. for 60 min. The pellets are thawed on ice in 30 to 60 min and taken up in buffer B (10 mM Tris acetate, pH 8.0, 20 mM magnesium acetate, 1 mM DTT, 50 mM KCl) up to a total volume of 99 ml. 1.5 ml portions of lysostaphin (0.8 mg/ml) in buffer B are introduced into 3 precooled centrifuge cups and each is mixed with 33 ml of the cell suspension. The samples are incubated at 37° C., shaking occasionally, for 45 to 60 min, before 150 μl of a 0.5 M DTT solution are added. The lysed cells are centrifuged at 30 000×g and 4° C. for 30 min. The cell pellet is taken up in buffer B and then centrifuged again under the same conditions, and the collected supernatants are combined. The supernatants are centrifuged again under the same conditions, and 0.25 volumes of buffer C (670 mM Tris acetate, pH 8.0, 20 mM magnesium acetate, 7 mM Na3 phosphoenolpyruvate, 7 mM DTT, 5.5 mM ATP, 70 μM amino acids (complete from Promega), 75 μg of pyruvate kinase (Sigma, Germany))/ml are added to the upper ⅔ of the supernatant. The samples are incubated at 37° C. for 30 min. The supernatants are dialysed against 21 of dialysis buffer (10 mM Tris acetate, pH 8.0, 14 mM magnesium acetate, 1 mM DTT, 60 mM potassium acetate) in a dialysis tube with a 3500 Da cut-off with one buffer change at 4° C. overnight. The dialysate is concentrated to a protein concentration of about 10 mg/ml by covering the dialysis tube with cold PEG 8000 powder (Sigma, Germany) at 4° C. The S30 extracts can be stored in aliquots at −70° C.
Determination of the IC50 in the S. aureus In Vitro Transcription-Translation Assay
Inhibition of protein biosynthesis of the compounds can be shown in an in vitro transcription-translation assay. The assay is based on the cell-free transcription and translation of firefly luciferase using the reporter plasmid p1a as template and cell-free S30 extracts obtained from S. aureus. The activity of the resulting luciferase can be detected by luminescence measurement.
The amount of S30 extract or plasmid p1a respectively to be employed must be tested anew for each preparation in order to ensure an optimal concentration in the assay. 3 μl of the substance to be tested, dissolved in 5% DMSO, are introduced into an MTP. Then 10 μl of a suitably concentrated plasmid solution p1a are added. […]

[3] = test system: S. aureus 133; experiment: Determination of the minimum inhibitory concentration (MIC), S. aureus 133; assay type: cell-based
Experimental: (§1) Determination of the Minimum Inhibitory Concentration (MIC)
(§2) The minimum inhibitory concentration (MIC) is the minimum concentration of an antibiotic with which the growth of a test microbe is inhibited over 18-24 h. The inhibitor concentration can in these cases be determined by standard microbiological methods (see, for example, The National Committee for Clinical Laboratory Standards. Methods for dilution antimicrobial susceptibility tests for bacteria that grow aerobically; approved standard-fifth edition. NCCLS document M7-A5 [ISBN 1-56238-394-9]. NCCLS, 940 West Valley Road, Suite 1400, Wayne, Pa. 19087-1898 USA, 2000). The MIC of the compounds of the invention is determined in the liquid dilution test on the 96-well microtitre plate scale. The bacterial microbes are cultivated in a minimal medium (18.5 mM Na2HPO4, 5.7 mM KH2PO4, 9.3 mM NH4Cl, 2.8 mM MgSO4, 17.1 mM NaCl, 0.033 μg/ml thiamine hydrochloride, 1.2 μg/ml nicotinic acid, 0.003 μg/ml biotin, 1% glucose, 25 μg/ml of each proteinogenic amino acid with the exception of phenylalanine; [H.-P. Kroll; unpublished]) with the addition of 0.4% BH broth (test medium). In the case of Enterococcus facium L4001, heat-inactivated fetal calf serum (FCS; GibcoBRL, Germany) is added to the test medium in a final concentration of 10%. Overnight cultures of the test microbes are diluted to an OD578 of 0.001 (to 0.01 in the case of enterococci) in fresh test medium, and incubated 1:1 with dilutions of the test substances (1:2 dilution steps) in test medium (200 μl final volume). The cultures are incubated at 37° C. for 18-24 hours; enterococci in the presence of 5% CO2.
(§3) The lowest substance concentration in each case at which no visible bacterial growth occurred any more is defined as the MIC.
(§4) Alternative Method for Determining the Minimum Inhibitory Concentration (MIC)
(§5) The minimum inhibitory concentration (MIC) is the minimum concentration of an antibiotic with which the growth of a test microbe is inhibited over 18-24 h. The inhibitor concentration can in these cases be determined by standard microbiological methods with modified medium in an agar dilution test (see, for example, The National Committee for Clinical Laboratory Standards. Methods for dilution antimicrobial susceptibility tests for bacteria that grow aerobically; approved standard-fifth edition. NCCLS document M7-A5 [ISBN 1-56238-394-9]. NCCLS, 940 West Valley Road, Suite 1400, Wayne, Pa. 19087-1898 USA, 2000). The bacterial microbes are cultivated on 1.5% agar plates which contain 20% defibrinated horse blood. The test microbes, which are incubated overnight on Columbia blood agar plates (Becton-Dickinson), are diluted in PBS, adjusted to a microbe count of about […] and placed dropwise (1-3 μl) on test plates. The test substances comprise different dilutions of the test substances (1:2 dilution steps). The cultures are incubated at 37° C. in the presence of 5% CO2 for 18-24 hours.
(§6) The lowest substance concentration in each case at which no visible bacterial growth occurred any more is defined as the MIC and is reported in μg/ml.

[4] = test system: S. aureus T17; experiment: Determination of the minimum inhibitory concentration (MIC), biphenomycin-resistant S. aureus T17; assay type: cell-based; conditions: Staphylococcus aureus, biphenomycin-resistant strain, no visible bacterial growth, 18-24 h, 37° C., read-out: MIC S. aureus T17
Experimental: as §1, §2, §3, §4, §5, §6
The S. aureus strain T17 is isolated in vivo. CFW1 mice are infected intraperitoneally with 4×10^7 S. aureus 133 cells per mouse. 0.5 h after the infection, the animals are treated intravenously with 50 mg/kg biphenomycin B. The kidneys are removed from the surviving animals on day 3 after the infection. After homogenization of the organs, the homogenates are plated out as described for RN4220Bi^R on antibiotics-free and antibiotics-containing agar plates and incubated at 37° C. overnight. […] About 20 of these colonies are tested for the biphenomycin B MIC, and a colony with an MIC of >50 μM is selected for further cultivation, and the strain is referred to as T17.

[5] = test system: E. faecium L4001; experiment: Determination of the minimum inhibitory concentration (MIC), E. faecium L4001; assay type: cell-based; conditions: Enterococcus faecium
Experimental: as §1, §2, §3, §4, §5, §6

[6] = Staphylococcus aureus, 133, read-out: MIC S. aureus 133
[7] = L4001, read-out: MIC E. faecium L4001
[8] = Staphylococcus aureus, 133, no visible bacterial growth, 18-24 h, 37° C., read-out: MIC S. aureus 133
[9] = L4001, no visible bacterial growth, 18-24 h, 37° C., 5% CO2, read-out: MIC E. faecium L4001

Row | Structure (SMILES) | therapeutic effect ED100 [1] [mg/kg] | IC50 [2] [nM] | MIC [3, 6] [µg/mL] | MIC [4] [µg/mL] | MIC [5, 7] [µg/mL] | MIC [3, 8] [µg/mL] | MIC [5, 9] [µg/mL]
1 | NCCC[C@H](NC(=O)[C@@H]1Cc2cc(ccc2O)-c2ccc(O)c(c2)C[C@H](N)C(=O)N[C@@H](CCCN)C(=O)N1)C(=O)NCCN [Example 2, (8S,11S,14S)-14-Amino-N-((1S)-4-amino-1-{[(2-aminoethyl)amino]carbonyl}butyl)-11-(3-aminopropyl)-5,17-dihydroxy-10,13-dioxo-9,12-diazatricyclo[14.3.1.1^2,6]henicosa-1(20),2(21),3,5,16,18-hexaene-8-carboxamide tetra(hydrotrifluoroacetate)] | 1.25 | – | – | – | – | – | –
2 | NCCC[C@@H]1NC(=O)[C@@H](N)Cc2cc(ccc2O)-c2ccc(O)c(c2)C[C@@H](C(=O)N[C@@H](C[C@@H](O)CN)C(=O)NCCN)NC1=O [Example 6, (8S,11S,14S)-14-Amino-N-((1S,3R)-4-amino-1-{[(2-aminoethyl)amino]carbonyl}-3-hydroxybutyl)-11-[3-aminopropyl]-5,17-dihydroxy-10,13-dioxo-9,12-diazatricyclo[14.3.1.1^2,6]henicosa-1(20),2(21),3,5,16,18-hexaene-8-carboxamide tetrahydrochloride] | – | 100 | 1 | 2 | 8 | – | –
3 | NCCC[C@H](NC(=O)[C@@H]1Cc2cc(ccc2O)-c2ccc(O)c(c2)C[C@H](N)C(=O)N[C@@H](CCCN)C(=O)N1)C(=O)NCCC[C@H](N)CC(=O)NCCN [Example 10, (8S,11S,14S)-14-Amino-N-{(1S)-4-amino-1-[({(4R)-4-amino-6-[(2-aminoethyl)amino]-6-oxohexyl}amino)carbonyl]butyl}-1-(3-aminopropyl)-5,17-dihydroxy-10,13-dioxo-9,12-diazatricyclo[14.3.1.1^2,6]henicosa-1(20),2(21),3,5,16,18-hexaene-8-carboxamide pentahydrochloride] | – | 70 | – | 0.5 | – | 0.5 | 8
4 | NCCC[C@H](NC(=O)[C@@H]1Cc2cc(ccc2O)-c2ccc(O)c(c2)C[C@H](N)C(=O)N[C@@H](CCCN)C(=O)N1)C(=O)N[C@@H](CCN)C(=O)NCCN [Example 13, (8S,11S,14S)-14-Amino-N-((1S)-4-amino-1-{[((1S)-3-amino-1-{[(2-aminoethyl)amino]carbonyl}propyl)amino]carbonyl}butyl)-11-(3-aminopropyl)-5,17-dihydroxy-10,13-dioxo-9,12-diazatricyclo[14.3.1.1^2,6]henicosa-1(20),2(21),3,5,16,18-hexaene-8-carboxamide pentahydrochloride] | – | 60 | 0.5 | 0.5 | 16 | – | –
5 | N=C(N)NCCC[C@H](NC(=O)[C@@H]1Cc2cc(ccc2O)-c2ccc(O)c(c2)C[C@H](N)C(=O)N[C@@H](CCCN)C(=O)N1)C(=O)NCCN [Example 14, (8S,11S,14S)-14-Amino-N-((1S)-1-{[(2-aminoethyl)amino]carbonyl}-4-{[amino(imino)methyl]amino}butyl)-11-(3-aminopropyl)-5,17-dihydroxy-10,13-dioxo-9,12-diazatricyclo[14.3.1.1^2,6]henicosa-1(20),2(21),3,5,16,18-hexaene-8-carboxamide pentahydrochloride] | – | 70 | 1 | 2 | 4 | – | –
6 | NCCC[C@H](N)CNC(=O)[C@H](CCCN)NC(=O)[C@@H]1Cc2cc(ccc2O)-c2ccc(O)c(c2)C[C@H](N)C(=O)N[C@@H](CCCN)C(=O)N1 [Example 16, (8S,11S,14S)-14-Amino-N-[(1S)-4-amino-1-({[(2S)-2,5-diaminopentyl]amino}carbonyl)butyl]-11-(3-aminopropyl)-5,17-dihydroxy-10,13-dioxo-9,12-diazatricyclo[14.3.1.1^2,6]henicosa-1(20),2(21),3,5,16,18-hexaene-8-carboxamide tetrahydrochloride] | – | 100 | 2 | 2 | > 32 | – | –
7 | NCCC[C@@H]1NC(=O)[C@@H](N)Cc2cc(ccc2O)-c2ccc(O)c(c2)C[C@@H](C(=O)N[C@H](CO)CNC(=O)[C@@H](N)CCCN)NC1=O [Example 23] | – | 320 | – | 1 (≈ 1.56 µM) | – | 0.5 (≈ 0.778 µM) | 4 (≈ 6.22 µM)
